Measurements as given in patent US8101761B2, “(E)-N-{3-[1-(8-fluoro-11H-10-OXA-1-AZA-dibenzo [A,D] cyclohepten-5ylidene)-propyl]-phenyl}-methanesulfonamide as glucocorticoid receptor modulator for the treatment of rheumatoid arthritis” (Eli Lilly and Company, priority 2008, dated 2012).

What was measured:
[1] = molecular target: T1, human AR (androgen receptor) (Homo sapiens, UniProt P10275); test: Nuclear hormone receptor competition binding assay, AR; settings: HEK293 lysate overexpressing human AR, [3H]-methyltrienolone; mean of n=7
T1 construct: expressed in transfected cells; host or cells: HEK293 (293-AR lysate)
T1 sequence (P10275 1-920): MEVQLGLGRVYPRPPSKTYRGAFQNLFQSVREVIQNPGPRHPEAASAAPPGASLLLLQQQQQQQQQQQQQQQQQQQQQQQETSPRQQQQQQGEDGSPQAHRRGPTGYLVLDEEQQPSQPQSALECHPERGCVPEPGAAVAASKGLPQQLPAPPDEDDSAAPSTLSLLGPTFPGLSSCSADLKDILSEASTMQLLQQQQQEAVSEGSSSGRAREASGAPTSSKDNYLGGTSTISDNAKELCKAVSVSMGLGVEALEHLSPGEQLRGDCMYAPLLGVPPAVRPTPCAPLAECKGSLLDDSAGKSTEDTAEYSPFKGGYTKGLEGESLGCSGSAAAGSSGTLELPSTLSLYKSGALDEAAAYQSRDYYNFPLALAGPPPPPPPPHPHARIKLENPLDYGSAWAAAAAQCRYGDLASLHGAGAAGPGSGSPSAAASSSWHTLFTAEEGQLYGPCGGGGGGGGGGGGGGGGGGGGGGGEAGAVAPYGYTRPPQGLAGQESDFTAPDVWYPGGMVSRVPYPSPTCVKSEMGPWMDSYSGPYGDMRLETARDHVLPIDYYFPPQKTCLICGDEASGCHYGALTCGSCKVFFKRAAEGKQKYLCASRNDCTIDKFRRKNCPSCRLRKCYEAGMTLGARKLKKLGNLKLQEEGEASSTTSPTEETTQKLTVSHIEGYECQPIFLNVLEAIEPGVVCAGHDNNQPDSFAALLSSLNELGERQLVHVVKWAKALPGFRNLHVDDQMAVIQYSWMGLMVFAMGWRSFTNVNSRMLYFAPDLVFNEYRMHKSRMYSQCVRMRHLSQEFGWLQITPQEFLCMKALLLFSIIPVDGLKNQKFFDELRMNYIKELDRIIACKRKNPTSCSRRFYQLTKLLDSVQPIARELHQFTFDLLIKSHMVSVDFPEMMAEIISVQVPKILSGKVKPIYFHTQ
Experimental: Cell lysates from human embryonic kidney HEK293 cells overexpressing human GR (glucocorticoid receptor), AR (androgen receptor), MR (mineralocorticoid receptor), or PR (progesterone receptor) are used for receptor-ligand competition binding assays to determine Ki values.
Briefly, steroid receptor competition binding assays are run in a buffer containing 20 mM Hepes buffer (pH=7.6), 0.2 mM EDTA, 75 mM NaCl, 1.5 mM MgCl2, 20% glycerol, 20 mM sodium molybdate, 0.2 mM DTT (dithiothreitol), 20 μg/ml aprotinin and 20 μg/ml leupeptin. Typically, steroid receptor binding assays include radio-labeled ligands, such as 0.3 nM [^3H]-dexamethasone for GR binding, 0.36 nM [^3H]-methyltrienolone for AR binding, 0.25 nM [^3H]-aldosterone for MR binding, and 0.29 nM [^3H]-methyltrienolone for PR binding, and either 20 μg 293-GR lysate, 22 μg 293-AR lysate, 20 μg 293-MR lysate or 40 μg 293-PR lysate per well. Assays are typically run in 96-well format. Competing test compounds are added at various concentrations ranging from about 0.01 nM to 10 μM. Non-specific binding is determined in the presence of 500 nM dexamethasone for GR binding, 500 nM aldosterone for MR binding, or 500 nM methyltrienolone for AR and PR binding. […] After an incubation of 2 hours, plates are read in a Wallac Microbeta counter. […]

[2] = test system: serum osteocalcin in male Swiss-Webster mice; test: Serum osteocalcin assay; type: in vivo, mouse; settings: oral, seven days, 3 mg/Kg/day Compound (I) vs 10 mg/Kg/day prednisolone, serum 24 h after last dose
Source text: Bone loss/osteoporosis and the resulting increased risk of fracture is a common and significant adverse effect that results from glucocorticoid therapy. Glucocorticoid induced osteoporosis is believed to result, at least in part, from an inhibition of bone formation. The measurement of serum osteocalcin, a biological marker of bone synthesis, is a recognized tool for assessing the adverse effects of glucocorticoid therapy on bone.
To assess the effects of Compound (I) on bone formation, Compound (I) is formulated in a vehicle comprising 5% carboxymethyl cellulose and 0.25% Tween 80 and administered orally via gavage to sixteen week old male Swiss-Webster mice (Harlan Industries, Indianapolis) for seven days. For comparison, prednisolone is administered orally in the same vehicle. Serum is collected 24 hours after the last dose and osteocalcin levels are determined using a competitive radioimmunoassay modified to a 96 well format. […] The filters are punched and the radioactivity quantitated on a gamma counter. Radioactivity detected on the filters from test samples is inversely proportional to serum osteocalcin concentration. […]

Ki [1]: ~6.7 nM
SMILES: CC/C(=C1\c2ccc(F)cc2OCc2ncccc21)c1cccc(NS(C)(=O)=O)c1 [Compound (I), (E)-N-{3-[1-(8-Fluoro-11H-10-oxa-1-aza-dibenzo[a,d]cyclohepten-5-ylidene)-propyl]-phenyl}-methanesulfonamide]
reduction in serum osteocalcin levels [2]: less reduction in serum osteocalcin levels than prednisolone
